The values that follow come from patent US12521390B2, “Dosage forms for Tyk2 inhibitors” (Bristol-Myers Squibb Company, priority 2019, dated 2026).

A short description of data set [1]: Solubility of BMS-986165 crystalline free base as a function of pH. Type of data set: physicochemical. To be noted: pHs>4.
Data set [2] can be described thus: Chemical stability (related substances) of BMS-986165:HPMCAS-H SDDs on storage. The data set is classed as physicochemical. The conditions noted are these: API standard, no storage condition. Here is the method:
Lots of 25% w/w BMS-986165 SDD with HPMCAS-H were assessed for physical and chemical stability. […] Dissolution performance in the microcentrifuge test was unchanged.
There was no evidence of crystallization by PXRD in any SDD after storage for up to 6 months at 40° C./75% RH open (FIG. 1A and FIG. 1B). DSC data indicated slight changes similar to those observed in 25% w/w BMS-986165 SDD after exposure to 50° C./75% RH or 40° C./75% RH but there was no trend with API loading and the results were considered to reflect an “ageing” or “annealing” effect rather than crystal formation. Scanning electron microscopy (SEM) images confirmed the presence of a single phase homogenous dispersion (FIG. 2A-C, FIG. 3A-C, FIG. 4A-C).

In the case of `[2H]C([2H])([2H])NC(=O)c1nnc(NC(=O)C2CC2)cc1Nc1cccc(-c2ncn(C)n2)c1OC` [BMS-986165 crystalline free base, 6-(cyclopropaneamido)-4-((2-methoxy-3-(1-methyl-1H-1,2,4-triazol-3-yl)phenyl)amino)-N-(methyl-d3)pyridazine-3-carboxamide], in data set [1], the solubility result is “low”.
Regarding `[2H]C([2H])([2H])NC(=O)c1nnc(NC(=O)C2CC2)cc1Nc1cccc(-c2ncn(C)n2)c1OC` [BMS-986165, 6-(cyclopropaneamido)-4-((2-methoxy-3-(1-methyl-1H-1,2,4-triazol-3-yl)phenyl)amino)-N-(methyl-d3)pyridazine-3-carboxamide], in data set [2], the “BMS-986165 (related substances, relative ret. time 1.00)” value worked out at 99.48 and the Total impurities >LOQ was determined as 0.52%.
